{"source": "patent US20050261298A1", "about": "“Methods of treating conditions associated with an Edg-7 receptor” (priority 2002, published 2005)", "key": {"[1]": {"tested_on": "Muscarinic Non-Selective, Central", "assay": "Radioligand binding assay, 3H Quinuclidinyl benzilate", "set-up": "species or system Wistar rat", "conditions": "significance criteria ≧50% of max stimulation or inhibition", "method": "(§1) In order to test the selectivity of compounds, various enzyme assays as well as radioligand binding assays were performed using numerous non-Edg receptor targets as listed below.\n(§2) A radioligand binding assay was performed using adrenergic α1 according to the method of Greengrass and Bremner 1979, Eur. J. Pharmacol. 55:323-326. A radioligand binding assay was performed using adrenergic α2 according to the method of Boyajian and Leslie, 1987, J. Pharmacol. Exp. Ther. 241:1092-1098. A radioligand binding assay was performed using adrenergic β according to the method of Feve et al., 1994, Proc. Natl. Acad. Sci. USA 91:5677-5681. A radioligand binding assay was performed using angiotensin AT2 according to the method of Whitebread et al., 1991, Biochem. Biophys. Res. Comm. 181:1365-1371. A radioligand binding assay was performed using calcium channel Type L, dihydropyridine according to the method of Ehlert et al., 1982, Life Sci. 30:2191-2202. A radioligand binding assay was performed using dopamine D2L according to the method of Bunzo et al., 1988, Nature 336:783-787. A radioligand binding assay was performed using endothelin ETA according to the method of Mihara et al., 1994, J. Pharmacol. Exp Ther. 268:1122-1127. A radioligand binding assay was performed using histamine H1 Central according to the method of Hill et al., 1978, J. Neurochem. 31:997-1004. […]"}, "Edg-8": {"target": "T1, Edg-8 (Homo sapiens, UniProt Q9H228)", "T1 construct": "expressed in transfected cells; host or cells: HTC rat hepatoma cells", "T1 sequence (Q9H228 whole entry)": "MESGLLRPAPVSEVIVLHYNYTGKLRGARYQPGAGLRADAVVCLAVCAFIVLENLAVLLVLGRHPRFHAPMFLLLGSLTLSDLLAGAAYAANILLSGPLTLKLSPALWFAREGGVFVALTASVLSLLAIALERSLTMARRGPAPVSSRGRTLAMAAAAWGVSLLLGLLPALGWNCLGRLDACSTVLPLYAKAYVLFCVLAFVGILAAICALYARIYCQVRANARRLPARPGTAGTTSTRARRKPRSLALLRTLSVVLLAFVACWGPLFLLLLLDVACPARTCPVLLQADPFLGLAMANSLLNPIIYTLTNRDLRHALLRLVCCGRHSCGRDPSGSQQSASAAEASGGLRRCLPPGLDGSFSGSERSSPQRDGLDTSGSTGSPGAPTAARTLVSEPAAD", "assay": "Calcium mobilization assay (FLIPR), inhibition of S1P-stimulated calcium increase", "type": "cell-based", "conditions": "HTC cells expressing Edg-8"}, "[2]": {"tested_on": "Calcium Channel Type L, Dihydropyridine", "assay": "Radioligand binding assay, 3H Nitrendipine", "set-up": "species or system Wistar Rat", "conditions": "significance criteria ≧50% of max stimulation or inhibition", "method": "as §1, §2"}, "Edg-5": {"target": "T2, Edg-5 (Homo sapiens, UniProt O95136)", "T2 construct": "expressed in transfected cells; host or cells: HTC rat hepatoma cells", "T2 sequence (O95136 whole entry)": "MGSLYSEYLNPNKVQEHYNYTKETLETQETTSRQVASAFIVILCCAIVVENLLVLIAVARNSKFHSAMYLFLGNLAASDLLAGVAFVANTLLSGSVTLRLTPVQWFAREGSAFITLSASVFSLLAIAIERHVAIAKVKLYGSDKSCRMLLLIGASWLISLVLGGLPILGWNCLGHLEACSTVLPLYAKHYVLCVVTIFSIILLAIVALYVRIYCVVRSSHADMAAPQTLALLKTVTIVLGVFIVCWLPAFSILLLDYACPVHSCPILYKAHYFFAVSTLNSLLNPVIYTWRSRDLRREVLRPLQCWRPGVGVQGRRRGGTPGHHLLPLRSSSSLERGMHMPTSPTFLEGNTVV", "assay": "Calcium mobilization assay (FLIPR), inhibition of S1P-stimulated calcium increase", "type": "cell-based", "conditions": "HTC cells expressing Edg-5"}, "Endothelin ETA": {"target": "T3, Endothelin ETA (Homo sapiens, UniProt P25101)", "T3 construct": "expressed in transfected cells; host or cells: CHO cells", "T3 sequence (P25101 21-427)": "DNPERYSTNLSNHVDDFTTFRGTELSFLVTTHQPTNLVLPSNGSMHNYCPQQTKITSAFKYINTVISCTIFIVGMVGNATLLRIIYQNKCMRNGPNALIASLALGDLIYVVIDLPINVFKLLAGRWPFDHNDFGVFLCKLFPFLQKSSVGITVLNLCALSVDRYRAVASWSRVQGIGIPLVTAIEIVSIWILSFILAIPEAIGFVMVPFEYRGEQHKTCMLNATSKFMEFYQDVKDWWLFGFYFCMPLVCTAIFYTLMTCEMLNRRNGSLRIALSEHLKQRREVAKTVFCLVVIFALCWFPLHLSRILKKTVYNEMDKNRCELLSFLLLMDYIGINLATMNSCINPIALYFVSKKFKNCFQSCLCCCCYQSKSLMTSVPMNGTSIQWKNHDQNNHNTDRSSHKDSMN", "assay": "Radioligand binding assay, 125I Endothelin", "conditions": "significance criteria ≧50% of max stimulation or inhibition", "method": "as §1, §2"}, "Adrenergic β": {"tested_on": "Adrenergic β", "assay": "Radioligand binding assay, 3H Dihydroaplenolol", "set-up": "species or system Wistar rat", "conditions": "significance criteria ≧50% of max stimulation or inhibition", "method": "as §1, §2"}, "Histamine H1, Central": {"target": "T4, Histamine H1, Central (Cavia porcellus, UniProt P31389)", "T4 construct": "Source: Guinea pig cerebellum; from tissue; host or cells: guinea pig cerebellum", "T4 sequence (P31389 whole entry)": "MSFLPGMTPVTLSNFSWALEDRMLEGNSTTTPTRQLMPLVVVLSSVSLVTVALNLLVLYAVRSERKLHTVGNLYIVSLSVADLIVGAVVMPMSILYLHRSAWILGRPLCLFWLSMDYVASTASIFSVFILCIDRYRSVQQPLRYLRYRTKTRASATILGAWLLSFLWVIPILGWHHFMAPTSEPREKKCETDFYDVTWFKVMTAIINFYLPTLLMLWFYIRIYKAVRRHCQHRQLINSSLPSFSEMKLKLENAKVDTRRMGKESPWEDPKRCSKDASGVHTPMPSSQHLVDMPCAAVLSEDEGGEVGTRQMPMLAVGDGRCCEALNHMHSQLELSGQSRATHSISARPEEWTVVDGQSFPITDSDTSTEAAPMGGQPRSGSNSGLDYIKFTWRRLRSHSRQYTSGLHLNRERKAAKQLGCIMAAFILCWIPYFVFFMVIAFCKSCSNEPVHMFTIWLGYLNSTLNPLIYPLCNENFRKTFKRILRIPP", "assay": "Radioligand binding assay, 3H Pyrilamine", "set-up": "species or system Guinea pig", "conditions": "significance criteria ≧50% of max stimulation or inhibition", "method": "as §1, §2"}, "Edg-2": {"target": "T5, Edg-2 (Homo sapiens, UniProt Q92633)", "T5 construct": "expressed in transfected cells; host or cells: HTC rat hepatoma cells", "T5 sequence (Q92633 whole entry)": "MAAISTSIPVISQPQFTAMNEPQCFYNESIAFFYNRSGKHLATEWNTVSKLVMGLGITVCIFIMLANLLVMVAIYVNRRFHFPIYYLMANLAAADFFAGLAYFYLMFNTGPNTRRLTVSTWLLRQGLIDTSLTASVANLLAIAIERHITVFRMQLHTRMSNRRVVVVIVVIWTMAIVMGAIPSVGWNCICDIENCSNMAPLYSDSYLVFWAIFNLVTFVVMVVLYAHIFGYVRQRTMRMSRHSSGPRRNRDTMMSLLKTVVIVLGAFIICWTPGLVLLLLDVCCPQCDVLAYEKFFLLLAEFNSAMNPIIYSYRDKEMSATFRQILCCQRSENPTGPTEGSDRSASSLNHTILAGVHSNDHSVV", "assay": "Calcium mobilization assay (FLIPR), inhibition of LPA-stimulated calcium increase", "type": "cell-based", "conditions": "HTC cells expressing Edg-2"}, "[3]": {"tested_on": "Adrenergic α1, Non-Selective", "assay": "Radioligand binding assay, 3H Prazosin", "set-up": "species or system Wistar Rat", "conditions": "significance criteria ≧50% of max stimulation or inhibition", "method": "as §1, §2"}, "Dopamine D2L": {"target": "T6, Dopamine D2L (Homo sapiens, UniProt P14416)", "T6 construct": "expressed in transfected cells; host or cells: CHO cells", "T6 sequence (P14416 whole entry)": "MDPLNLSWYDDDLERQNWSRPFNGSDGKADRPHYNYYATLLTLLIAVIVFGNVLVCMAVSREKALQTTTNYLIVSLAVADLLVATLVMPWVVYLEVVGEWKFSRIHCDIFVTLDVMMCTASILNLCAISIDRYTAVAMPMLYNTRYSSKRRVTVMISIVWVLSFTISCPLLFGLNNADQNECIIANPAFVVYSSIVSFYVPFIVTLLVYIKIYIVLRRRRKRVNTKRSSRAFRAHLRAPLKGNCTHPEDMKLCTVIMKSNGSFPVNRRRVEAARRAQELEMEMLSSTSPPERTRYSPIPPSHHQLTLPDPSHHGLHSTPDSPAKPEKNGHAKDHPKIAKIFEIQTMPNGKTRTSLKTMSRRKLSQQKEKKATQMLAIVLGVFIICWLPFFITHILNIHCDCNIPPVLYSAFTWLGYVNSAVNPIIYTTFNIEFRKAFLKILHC", "assay": "Radioligand binding assay, 3H Spiperone", "conditions": "significance criteria ≧50% of max stimulation or inhibition", "method": "as §1, §2"}, "Edg-4": {"target": "Edg-4 (Homo sapiens, UniProt Q9HBW0)", "sequence (Q9HBW0 1-344 limits assumed)": "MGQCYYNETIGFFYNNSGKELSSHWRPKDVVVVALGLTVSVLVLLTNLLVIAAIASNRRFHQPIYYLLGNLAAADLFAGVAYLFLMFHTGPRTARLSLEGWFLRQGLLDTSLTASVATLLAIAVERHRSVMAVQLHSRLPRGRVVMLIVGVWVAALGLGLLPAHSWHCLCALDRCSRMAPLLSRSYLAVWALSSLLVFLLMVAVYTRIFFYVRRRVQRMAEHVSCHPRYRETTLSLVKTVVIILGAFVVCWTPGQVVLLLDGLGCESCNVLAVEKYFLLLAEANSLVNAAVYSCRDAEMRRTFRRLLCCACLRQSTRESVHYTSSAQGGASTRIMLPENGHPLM", "assay": "Calcium mobilization assay (FLIPR), inhibition of LPA-stimulated calcium increase", "type": "cell-based", "conditions": "HTC cells expressing Edg-4"}, "[4]": {"conditions": "concentrations as high as 20 µM"}}}
{"smiles": "CCOC(=O)c1c(NC(=O)NS(=O)(=O)c2ccccc2Cl)sc2c1CCCC2", "note": "[Compound 101]", "values": [{"measurement": "activity in radioligand binding assay, Muscarinic, non-selective, central", "setting": "[1]", "result": "no significant activity"}, {"measurement": "IC50", "setting": "Edg-8", "result": "> 20", "unit": "µM"}, {"measurement": "inhibition of S1P-stimulated calcium increases, Edg-8", "setting": "Edg-8; [4]", "result": "did not inhibit"}, {"measurement": "activity in radioligand binding assay, Calcium Channels Type L, DHP", "setting": "[2]", "result": "no significant activity"}, {"measurement": "IC50", "setting": "Edg-5", "result": "> 20", "unit": "µM"}, {"measurement": "inhibition of S1P-stimulated calcium increases, Edg-5", "setting": "Edg-5; [4]", "result": "did not inhibit"}, {"measurement": "activity in radioligand binding assay, Endothelin ETA", "setting": "Endothelin ETA", "result": "no significant activity"}, {"measurement": "activity in radioligand binding assay, Adrenergic Beta, non-selective", "setting": "Adrenergic β", "result": "no significant activity"}, {"measurement": "activity in radioligand binding assay, H1 central", "setting": "Histamine H1, Central", "result": "no significant activity"}, {"measurement": "IC50", "setting": "Edg-2", "result": "> 20", "unit": "µM"}, {"measurement": "inhibition of LPA-stimulated calcium increases, Edg-2", "setting": "Edg-2; [4]", "result": "did not inhibit"}, {"measurement": "activity in radioligand binding assay, Adrenergic Alpha 1, non-selective", "setting": "[3]", "result": "no significant activity"}, {"measurement": "activity in radioligand binding assay, Dopamine D2L", "setting": "Dopamine D2L", "result": "no significant activity"}, {"measurement": "IC50", "setting": "Edg-4", "result": "> 20", "unit": "µM"}, {"measurement": "inhibition of LPA-stimulated calcium increases, Edg-4", "setting": "Edg-4; [4]", "result": "did not inhibit"}]}
